Source: publication PMC3401313 (Bioorganic & medicinal chemistry letters, 2012)

Columns and labels:
[1] = target: recombinant His-tagged HDAC2 (Homo sapiens, UniProt Q92769); format: binding; conditions: probe 25 µM, HDAC2 1.25 µM, Trichostatin A 125 µM (5-fold molar excess), 24 h preincubation, 254 nm UV
recombinant human HDAC3 = recombinant human HDAC3 (Homo sapiens, UniProt O15379); experiment: HDAC3 fluorogenic inhibition assay; conditions: read-out: HDAC3 %Inhibition(10µM)
Chain of recombinant human HDAC3 (O15379 whole entry): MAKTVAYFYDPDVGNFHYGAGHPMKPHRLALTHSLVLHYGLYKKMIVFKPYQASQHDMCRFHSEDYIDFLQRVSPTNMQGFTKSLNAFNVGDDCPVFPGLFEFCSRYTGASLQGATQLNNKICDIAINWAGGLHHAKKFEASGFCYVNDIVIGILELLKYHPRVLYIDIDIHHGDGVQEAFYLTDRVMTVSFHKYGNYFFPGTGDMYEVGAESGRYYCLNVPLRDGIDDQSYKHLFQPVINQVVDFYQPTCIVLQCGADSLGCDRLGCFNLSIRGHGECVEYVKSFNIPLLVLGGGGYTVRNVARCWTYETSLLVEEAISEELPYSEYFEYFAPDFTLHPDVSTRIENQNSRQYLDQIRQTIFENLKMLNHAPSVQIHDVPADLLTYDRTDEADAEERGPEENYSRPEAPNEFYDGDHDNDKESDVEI
Chain of recombinant human HDAC3 (Q9Y618 395-489 partner limits assumed): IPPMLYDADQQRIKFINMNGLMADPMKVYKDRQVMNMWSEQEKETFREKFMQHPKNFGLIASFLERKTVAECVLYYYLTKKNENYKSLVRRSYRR

Chain of recombinant His-tagged HDAC2 (Q92769 whole entry): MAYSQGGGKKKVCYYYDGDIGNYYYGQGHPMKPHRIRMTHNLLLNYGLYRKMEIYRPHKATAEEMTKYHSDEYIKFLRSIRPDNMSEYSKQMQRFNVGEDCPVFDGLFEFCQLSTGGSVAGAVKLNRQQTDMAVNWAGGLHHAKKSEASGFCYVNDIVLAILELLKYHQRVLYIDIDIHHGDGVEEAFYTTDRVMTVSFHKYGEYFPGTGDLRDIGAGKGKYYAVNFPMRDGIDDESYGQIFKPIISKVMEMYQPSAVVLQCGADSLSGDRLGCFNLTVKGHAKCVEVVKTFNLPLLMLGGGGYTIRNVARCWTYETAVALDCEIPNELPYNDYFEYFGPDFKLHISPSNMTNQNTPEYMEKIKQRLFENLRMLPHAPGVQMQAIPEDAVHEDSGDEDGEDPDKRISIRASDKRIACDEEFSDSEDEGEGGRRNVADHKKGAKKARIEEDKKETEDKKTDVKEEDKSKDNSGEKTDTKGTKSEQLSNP

Compound	biotinylation of HDAC2 in competition with Trichostatin A [1]	inhibition at 10 µM (recombinant human HDAC3) [%]
[N-]=[N+]=NCCC(=O)Nc1ccc(C(=O)Nc2cc(N=[N+]=[N-])ccc2N)cc1 [1g]	slightly less pronounced	
O=C(CCCCCCC(=O)Nc1ccccc1)NO [SAHA, suberoyl anilide hydroxamic acid]		100
